Results taken from US20090156666A1, “NOVEL COMPOSITIONS AND USE THEREOF FOR THE TREATMENT, CO-TREATMENT OR PREVENTION OF INFLAMMATORY DISORDERS” (priority 2007, published 2009).

Experiments:
[1] = system: nitric oxide (NO) synthesis in RAW264.7 cells; test: Inhibition of nitric oxide synthesis in LPS-stimulated RAW264.7 macrophages (Griess reaction); format: cell-based, murine; conditions: single substances
human aggrecan = test: Gene expression (mRNA, RT-PCR) in normal human chondrocytes: aggrecan; format: cell-based; conditions: 50 μmol/L; 4 hrs; % of unstimulated cells (100%)
Experimental: (§1) The effect of a MA/HO (1:3 w/w) mixture in combination with glucosamine was tested on the expression of human aggrecan, collagen I, collagen II, or chondrocyte transcription factors (SOX-6, -9) in vitro in normal human chondrocytes (derived from knee) (CC-2550; Cambrex, respectively). A control experiment without the compounds was done concomitantly to compare the expression of these genes (percentage expression of gene in controls was set to 100%). […] The level of mRNA was determined by RT-PCR (Richard et al. Mol. Nutr. Food Res. 49, 431-442, 2005) and expressed relative to the level observed in cells cultured without the substances. The given values indicate the level of gene expression (in % of unstimulated cells [set at 100%] for anabolic and anti-catabolic genes; in % of IL1β-treated cells [set at 100%], for catabolic genes). […] Yet, when combined the observed increase in gene expression exceeded the expected one reflecting synergism.

collagen I = test: Gene expression (mRNA, RT-PCR) in normal human chondrocytes: collagen I; format: cell-based; conditions: 50 μmol/L; 4 hrs; % of unstimulated cells (100%)
Experimental: as §1

collagen II = test: Gene expression (mRNA, RT-PCR) in normal human chondrocytes: collagen II; format: cell-based; conditions: 50 μmol/L; 4 hrs; % of unstimulated cells (100%)
Experimental: as §1

TMP-I = test: Gene expression (mRNA, RT-PCR) in normal human chondrocytes: TMP-I (anti-catabolic); format: cell-based; conditions: 50 μmol/L; 4 hrs; % of unstimulated cells (100%)
Text: as §1, with “Catabolic events are controlled by the expression of genes, e.g. those genes that encode matrix metalloproteinases (MMPs) that eventually break down collagen or proteoglycans (ADAMTS-4, -5). Of the MMPs, MMP-1 and MMP-3 have a major role in breaking down the ECM in cartilage degradation. Some genes including TIMPS-1 (tissue-inhibitor of MMPs) have anti-catabolic effects and thus contribute to prevention of tissue erosion. The effect” for “The effect”

MMP-9 = test: Gene expression (mRNA, RT-PCR) in normal human chondrocytes: MMP-9 (catabolic); format: cell-based; conditions: 50 μmol/L; stim. 4 hrs; % of IL1β-treated cells (100%)
Text: as §1, with “Catabolic events are controlled by the expression of genes, e.g. those genes that encode matrix metalloproteinases (MMPs) that eventually break down collagen or proteoglycans (ADAMTS-4, -5). Of the MMPs, MMP-1 and MMP-3 have a major role in breaking down the ECM in cartilage degradation. Some genes including TIMPS-1 (tissue-inhibitor of MMPs) have anti-catabolic effects and thus contribute to prevention of tissue erosion. The effect” for “The effect”

ADAMTS-4 = test: Gene expression (mRNA, RT-PCR) in normal human chondrocytes: ADAMTS-4 (catabolic); format: cell-based; conditions: 50 μmol/L; unstim. 4 d; % of control (100%)
Text: Catabolic events are controlled by the expression of genes, e.g. those genes that encode matrix metalloproteinases (MMPs) that eventually break down collagen or proteoglycans (ADAMTS-4, -5). Of the MMPs, MMP-1 and MMP-3 have a major role in breaking down the ECM in cartilage degradation. Some genes including TIMPS-1 (tissue-inhibitor of MMPs) have anti-catabolic effects and thus contribute to prevention of tissue erosion. The effect of a MA/HO (1:3 w/w) mixture in combination with glucosamine was tested on the expression of human aggrecan, collagen I, collagen II, or chondrocyte transcription factors (SOX-6, -9) in vitro in normal human chondrocytes (derived from knee) (CC-2550; Cambrex, respectively). A control experiment without the compounds was done concomitantly to compare the expression of these genes (percentage expression of gene in controls was set to 100%). […] The level of mRNA was determined by RT-PCR (Richard et al. Mol. Nutr. Food Res. 49, 431-442, 2005) and expressed relative to the level observed in cells cultured without the substances. […] […] Yet, when combined the observed increase in gene expression exceeded the expected one reflecting synergism.

For `N[C@H]1C(O)O[C@H](CO)[C@@H](O)[C@@H]1O.O=S(=O)(O)O` (some centres unmarked) [Glucosamine sulfate, glucosamine sulfate], the “anti-inflammatory activity (in words)” value ([1]; LPS-stimulated, nitric oxide) was “marginal anti-inflammatory”, the IC50 ([1]; Mus musculus, LPS 1 μg/ml, 24 hours) was > 100 µM and the “Aggrecan gene expression level” value (human aggrecan) was 81%. For the same molecule, the “Collagen 1 gene expression level” value (collagen I) was 121%, the “Collagen II gene expression level” value (collagen II) was 154% and the “TMP-I gene expression level” value (TMP-I) was 110%. The “MMP-9 gene expression level” value (MMP-9) was 114% and the “ADAMTS-4 gene expression level” value (ADAMTS-4) was 101%.
